Data on 4 molecules can be found in paper PMC7073110, “Molecular Rescue of Dyrk1A Overexpression Alterations in Mice with Fontup® Dietary Supplement: Role of Green Tea Catechins” (International Journal of Molecular Sciences, 2020).

Like-named read-outs stand apart in the source and are kept apart here.

For data set [1], the system named is DYRK1A. The note with it: cited from earlier work.
Data set [2] in a line: EGCG levels in plasma and brain after oral gavage of FontUp. In kind it is in vivo, mice. Particulars: for concentration at 4 h / Kp at 4 h: male, mouse, two days; for Kp at 4 h: brain/plasma, read-out: Kp (brain concentration/plasma concentration). Here is the method: FontUp® was prepared daily as described above and strongly mixed at room temperature. Male mice received an oral gavage of three different doses (25, 50 and 75 mg/Kg), in the morning and in the evening for two or eight days. The last dose was administered 4 h before sacrifice.
Blood samples were obtained by retro-orbital sinus sampling with heparinized capillaries, collected into tubes containing a 1/10 volume of 3.8% sodium citrate, and immediately placed on ice. Plasma was isolated by centrifugation at 2500× g for 15 min at 4 °C. 80 µL of plasma samples were mixed with 20 µL 0.2 M NaH2PO4 solution containing 20% ascorbic acid and 0.1% EDTA, pH 3.6 for polyphenol assays. Plasma samples were store at −80 °C until use. Brains and hearts were harvested, snap-frozen in liquid nitrogen, and stored at −80 °C until use. Plasma total hcy, defined as the total concentration of hcy after quantitative reductive cleavage of all disulfide bonds, and total GSH were assayed using a fluorometric HPLC method previously described. ALT concentrations were determined using the Alanine Aminotransferase Activity Assay Kit (Sigma-Aldrich, Saint-Quentin Fallavier, France), based on the pyruvate generated. Plasma galectin-3 (Abcam ELISA kit, Paris, France), and fibronectin (Abcam ELISA kit) were assessed using sandwich ELISA. After removal of unbound conjugates, bound enzyme activity was assessed by use of a chromogenic substrate for measurement at 450 nm by a microplate reader (Flex Station 3, Molecular Devices, Ltd., Wokhingham, UK).
Brains were homogenized with 1.5 mm diameter beads for 2 min at 25 frequencies/second using a tissue lyser II (Qiagen, Hilden, Germany). The homogenates were centrifuged at 13,000 rpm for 10 min at 4 °C. The supernatants were transferred in a clear tube and mixed with the preservative solution as mentioned at one-tenth of its volume.
The catechin contents was analyzed as previously reported. Two hundred microliters of plasma or brain samples homogenates were thawed at room temperature and 50 µL of 0.4 M sodium phosphate buffer (pH 7.4) were added. The sample was mixed with 10 µL of beta-glucuronidase (250 units) and 10 µL of sulfatase (10 units) and then incubated at 37 °C for 45 min. Then the plasma or brain samples were partitioned with ethyl acetate in the ratio of 1:1 (v/v). The liquid-liquid extraction was carried out three times for 1 min by shaking on vortex and the organic phases (upper phases) were pooled. The combined ethyl acetate phases were evaporated under vacuum to dryness. The dry residue was re-dissolved in 50% methanol in water and was kept at −80 °C before HPLC analysis. HPLC was performed with a LC Prominence (Shimadzu, Kyoto, Japan) coupled with a Coulochem III electrode array detector (ESA Inc., Bedford, MA, USA) using a reverse- Interchrom C18 column (3 µm, 150 × 2.1 mm) eluted with the eluent described below at a flow rate of 0.35 mL/min at 45 °C. HPLC analysis was performed using a linear gradient system with mobile phase A (20 mM NaH2PO4) and mobile phase B (acetonitrile). Linear gradient elution was performed as follows: 100% mobile phase A for 10 min; 55% mobile phase A for 30 min and return to 100% mobile phase A for 15 min. The eluent was monitored using the Coulochem-III electrochemical detector (5011 analytical cell) with potential settings at 600 mV (E1) and 700 mV (E2). Quantification was carried out using the external standard method. Catechin quantification was performed after data acquisition using an LC Solution (Shimadzu).

Data set [3] addresses T1, DYRK1A-ΔC (truncated DYRK1A, catalytic domain residues 1–502) (Rattus norvegicus, UniProt Q63470).
T1 construct: catalytic domain (residues 1–502) of rat DYRK1A; 6xHis; made in house; host or cells: Escherichia coli BL21
Description: DYRK1A-ΔC inhibition assay, HPLC/UFLC-based with fluorescent peptide substrate. Particulars: for remaining activity at 0.1 µM: read-out: DYRK1A-ΔC Remaining Activity at 0.1 µM; for remaining activity at 1 µM: read-out: DYRK1A-ΔC Remaining Activity at 1 µM; for remaining activity at 100 µM: read-out: DYRK1A-ΔC Remaining Activity at 100 µM; for Effect on DYRK1A-ΔC activity (in words): 0.1–100 µM. In kind it is biochemical. Here is the method: W. Becker (Aachen University, Aachen, Germany) and subcloned into pET28a plasmid to produce recombinant 6xHis-tagged DYRK1A catalytic domain (DYRK1A-ΔC). The pET28-Dyrk1a-ΔC plasmid was transformed into Escherichia coli cells (BL21) for production and purification of the enzyme. Briefly, transformed bacteria cells were grown at 37 °C for 4 h until OD was between 0.6–0.7 and further grown at 37 °C for 5 h in the presence of 0.5 mM isopropyl β-D-1-thiogalactopyranoside (IPTG). Cells were harvested by centrifugation at 6000× g, 4 °C for 10 min and the pellet was washed with PBS. The pellet was re-suspended in PBS supplemented with protease inhibitors, 1 mg/mL lysozyme and 0.1% Triton X-100. After 30 min incubation at 4 °C, the lysate was subjected to sonication on ice (6 min with pulse on 30 s/ off 30 s) and pelleted at 10,000× g, 4 °C for 30 min. The supernatant was incubated with His-select nickel resin (Sigma, Saint-Quentin Fallavier, France) for 2 h at 4 °C under agitation, and the resin was transferred into a column and washed with Tris-HCl 20 mM, pH 8, with 5 mM imidazole. Proteins were eluted in Tris-HCl 20 mM, pH 8, 300 mM imidazole, and dialyzed overnight against Tris-HCl 50 mM, pH 8, dithiothreitol (DTT) 10 mM, MgCl2 5 mM. Purified proteins were quantified with Bradford’s reagent (BioRad). Purity was assessed by sodium dodecyl sulfate-polyacrylamide gel electrophoresis (SDS-PAGE). Proteins were kept at −80 °C until use.
The fluorescent peptide substrate was derived from the sequence of the human transcription factor FKHR that is a physiological substrate of DYRK1A [46]. […] The enzymatic reaction was started by addition of the substrate and the mixture was incubated at 37 °C for 30 min. […] The peptides were monitored by fluorimetry (excitation at 485 nm, emission at 530 nm) and quantified by integration of the peak absorbance area. A calibration curve established with different known concentrations of peptides was used for quantification. For inhibition studies with green tea catechins, the compounds, dissolved in water, were added at four different concentrations (up to 100 µM) to the well prior to addition of ATP (1 mM final concentration). Determination of the mode of inhibition (competitive/non-competitive) of the compounds was obtained by carrying assays with different concentrations of ATP (200, 400 and 800 µM).

Data set [4] has as its target T2, DYRK1A native human protein (Homo sapiens, UniProt Q13627).
T2 construct: purchased Thermo Fisher Scientific PV3785
Put plainly: DYRK1A inhibition assay, HPLC-based (native protein PV3785). In kind it is biochemical.

[5] abbreviates: 0.1 µM compound, 1 mM ATP, 60 µM peptide, normalized to no inhibitor.
Where [6] appears, read: 1 µM compound, 1 mM ATP, 60 µM peptide, normalized to no inhibitor.
Where [7] appears, read: 10 µM compound, 1 mM ATP, 60 µM peptide, normalized to no inhibitor, read-out: DYRK1A-ΔC Remaining Activity at 10 µM.
[8] abbreviates: 100 µM compound, 1 mM ATP, 60 µM peptide, normalized to no inhibitor.

For the molecule `O=C(O[C@@H]1Cc2c(O)cc(O)cc2O[C@@H]1c1cc(O)c(O)c(O)c1)c1cc(O)c(O)c(O)c1` [EGCG, epigallocatechin-3-gallate], the “Mode of inhibition of DYRK1A” value in data set [1] (against both substrates) is reported as “non-competitive inhibitor”. Also, in data set [1] (read-out: IC50 to inhibit DYRK1A activity), the IC50 was 330 nM. Also, the “Crossing of the blood-brain barrier (in words)” value in data set [2] (WT and TgBACDyrk1A mice, FontUp D2, two days, from Kp) is recorded as “had crossed the BBB”. In addition, the concentration at 4 h turned out to be 50 nM in data set [2] (TgBACDyrk1A, brain, 50 mg/Kg, TgDyrk1A mice, FontUp D2 oral gavage, n = 5, p < 0.07); 36 ± 11 nM in data set [2] (TgBACDyrk1A, plasma, 50 mg/Kg, TgDyrk1A mice, FontUp D2 oral gavage, n = 5); 25 ± 7 nM in data set [2] (brain, 50 mg/Kg, WT mice, FontUp D2 oral gavage, n = 5); 65 ± 23 nM in data set [2] (plasma, 50 mg/Kg, WT mice, FontUp D2 oral gavage, n = 5); 104 ± 11.2 nM in data set [2] (plasma, WT mice, FontUp high dose D3 (75 mg/Kg) oral gavage, last dose 4 h before sacrifice); 63 ± 10.8 nM in data set [2] (plasma, WT mice, FontUp intermediate dose D2 (50 mg/Kg) oral gavage, last dose 4 h before sacrifice). The same molecule showed a concentration at 4 h in data set [2] (plasma, WT mice, FontUp low dose D1 (25 mg/Kg) oral gavage, last dose 4 h before sacrifice) of 28 ± 0.0003 nM. In addition, the Kp at 4 h in data set [2] (TgBACDyrk1A, 50 mg/Kg, TgDyrk1A mice, FontUp D2 oral gavage) came out at 3.6 ± 0.82; in data set [2] (50 mg/Kg, WT mice, FontUp D2 oral gavage) it was 1.2 ± 0.33. The remaining activity at 0.1 µM in data set [3] came to 71.3 ± 4.6%. In addition, the remaining activity at 1 µM in data set [3] stood at 16.3 ± 2.3%. Moreover, in data set [3] (read-out: DYRK1A-ΔC Remaining Activity at 10 µM), the remaining activity at 10 µM turned out to be 6.4 ± 1.1%. Moreover, in data set [3], the remaining activity at 100 µM was determined as 3.5 ± 0.8%.

As to `Oc1cc(O)c2c(c1)O[C@H](c1ccc(O)c(O)c1)[C@H](O)C2` [EC, epicatechin], in data set [3] (setting [5]), the remaining activity at 0.1 µM came to 89.2 ± 9.5%. The remaining activity at 1 µM in data set [3] (setting [6]) came to 84.1 ± 9.1%. Besides, the remaining activity at 10 µM in data set [3] (setting [7]) was found to be 95.6 ± 8.1%. The remaining activity at 100 µM in data set [3] (setting [8]) was 88.7 ± 8.2%. Moreover, in data set [3] (1 mM ATP), the “Effect on DYRK1A-ΔC activity (in words)” value was “No effect”.

Take `O=C(O[C@@H]1Cc2c(O)cc(O)cc2O[C@@H]1c1ccc(O)c(O)c1)c1cc(O)c(O)c(O)c1` [ECG, epicatechin gallate]: the remaining activity at 0.1 µM came to 69.9 ± 3.9% in data set [4] (0.1 µM compound, 1 mM ATP, 60 µM peptide, native DYRK1A) and 78.1 ± 3.6% in data set [3] (setting [5]). Besides, the remaining activity at 1 µM in data set [4] (1 µM compound, 1 mM ATP, 60 µM peptide, native DYRK1A) turned out to be 12.5 ± 2.4%; in data set [3] (setting [6]), 27.1 ± 7.3%. Also, the remaining activity at 10 µM in data set [4] (10 µM compound, 200 µM ATP, up to 60 min at 37 °C, read-out: DYRK1A Remaining Activity with 200 µM ATP) was determined as 9.4 ± 1.4%; in data set [4] (10 µM compound, 400 µM ATP, up to 60 min at 37 °C, read-out: DYRK1A Remaining Activity with 400 µM ATP), 7 ± 1.1%; in data set [4] (10 µM compound, 800 µM ATP, up to 60 min at 37 °C, read-out: DYRK1A Remaining Activity with 800 µM ATP) it was 5.4 ± 0.9%; in data set [4] (10 µM compound, 1 mM ATP, 60 µM peptide, native DYRK1A, read-out: DYRK1A Remaining Activity at 10 µM), 4.6 ± 0.9%; in data set [3] (10 µM compound, 200 µM ATP, up to 60 min at 37 °C, read-out: DYRK1A-ΔC Remaining Activity With 200 µM ATP), 8 ± 0.8%; in data set [3] (10 µM compound, 400 µM ATP, up to 60 min at 37 °C, read-out: DYRK1A-ΔC Remaining Activity with 400 µM ATP) it was 6.5 ± 0.9%. Further, the remaining activity at 10 µM was determined as 4 ± 0.5% in data set [3] (10 µM compound, 800 µM ATP, up to 60 min at 37 °C, read-out: DYRK1A-ΔC Remaining Activity with 800 µM ATP) and 11.8 ± 4.2% in data set [3] (setting [7]). Further, the remaining activity at 100 µM came out at 2.3 ± 0.5% in data set [4] (100 µM compound, 1 mM ATP, 60 µM peptide, native DYRK1A) and 7.6 ± 2.3% in data set [3] (setting [8]). Besides, the “Mode of inhibition of DYRK1A against ATP” value in data set [4] (DYRK1A-ΔC and DYRK1A, 10 µM compound, ATP 200–800 µM) is recorded as “noncompetitive inhibitor”.

Regarding `Oc1cc(O)c2c(c1)O[C@H](c1cc(O)c(O)c(O)c1)[C@H](O)C2` [EGC, epigallocatechin], the remaining activity at 0.1 µM in data set [3] (setting [5]) came to 99.5 ± 3.2%. Also, the remaining activity at 1 µM in data set [3] (setting [6]) is 93.6 ± 2.6%. The remaining activity at 10 µM in data set [3] (setting [7]) was determined as 80.6 ± 11.4%. Moreover, the remaining activity at 100 µM in data set [3] (setting [8]) is 81.4 ± 12.8%. For the same molecule, the “Effect on DYRK1A-ΔC activity (in words)” value in data set [3] (1 mM ATP) is on record as “No effect”.
